# From patent US20240174702A1, “SOLID FORMS OF A COMPOUND FOR […]” (Gilead Sciences, Inc., priority 2022, published 2024)
# Assays:
# [1] = Stability study: loss of purity over time by liquid chromatography; format: physicochemical
# Procedure: Formula I amorphous material and Forms I, II, III and IV were examined for loss of purity over time as determined by liquid chromatography.
# The sample preparations for the stability study are described as follows: • Formula I Amorphous: A sample of amorphous solids was placed at about 22° C. open to air and the purity was monitored over 3 days by liquid chromatography. • Formula I Form I: Samples of Formula I Form I were placed in sealed glass vials and placed in a chamber at about 40° C. and about 75% RH and the purity was periodically monitored by liquid chromatography. • Formula I Form II: Samples of Formula I Form II were placed in an open vial. The vial was placed inside a container alongside a saturated salt solution to provide a humidity of about 88% RH and sealed. The sealed container was then placed into a chamber at about 40° C. and the purity was periodically monitored by liquid chromatography. • Formula I Form III: Samples of Formula I Form […] and sealed. The sealed container was then placed into a chamber at about 40° C. and the purity was periodically monitored by liquid chromatography. • Formula I Form IV: Samples of Formula I Form IV were packaged at about 0% RH inside a PE bag and heat-sealed inside a foil pouch. The pouches were then placed in a chamber at about 40° C. and the purity was periodically monitored by liquid chromatography.
# [2] = Dynamic vapor sorption (DVS) hygroscopicity; format: physicochemical; conditions: 25° C.
# Procedure: Hygroscopicity was studied using dynamic vapor sorption (DVS, TA Q5000 SA, TA Instruments, New Castle, DE or DVS, DVS Intrinsic, Surface Measurement Systems, London, UK). A sample (2-20 mg) was placed in an aluminum DVS pan and loaded on the sample side of the twin pan balance. The water sorption and desorption were studied as a function of relative humidity (RH) at 25° C. In 10% RH increments, the relative humidity was increased from 5% RH to 95% RH and then decreased back to 5% (some cases from 0 to 90% RH and then decrease back to 0%). […] Data analysis was performed using Universal Analysis 2000 Version 4.7A (TA Instruments, New Castle, DE) for TA DVS runs and Microsoft Excel for SMS DVS runs.
structure (smiles),measurement,setting,value
Cn1ccc2c([C@@H](c3cn(C45CC(C4)C5)nn3)N(C(=O)OCOP(=O)(O)O)c3cc(Cl)c4ncc(C#N)c(NCC(C)(C)C)c4c3)cccc2c1=O [Formula I Amorphous],Formula I Purity Over Time (% purity),"[1]; About 22° C., open to atmosphere, 0 days",95.74 % purity
same,Formula I Purity Over Time (% purity),"[1]; About 22° C., open to atmosphere, 1 day",95.45 % purity
same,Formula I Purity Over Time (% purity),"[1]; About 22° C., open to atmosphere, 2 days",95.18 % purity
same,Formula I Purity Over Time (% purity),"[1]; About 22° C., open to atmosphere, 3 days",95.05 % purity
Cn1ccc2c([C@@H](c3cn(C45CC(C4)C5)nn3)N(C(=O)OCOP(=O)(O)O)c3cc(Cl)c4ncc(C#N)c(NCC(C)(C)C)c4c3)cccc2c1=O [Formula I Form III],Formula I Purity Over Time (% purity),"[1]; About 40° C., about 27% RH, 0 days",98.61 % purity
same,Formula I Purity Over Time (% purity),"[1]; About 40° C., about 27% RH, 1 day",98.58 % purity
same,Formula I Purity Over Time (% purity),"[1]; About 40° C., about 27% RH, 7 days",98.55 % purity
same,Formula I Purity Over Time (% purity),"[1]; About 40° C., about 27% RH, 14 days",98.50 % purity
Cn1ccc2c([C@@H](c3cn(C45CC(C4)C5)nn3)N(C(=O)OCOP(=O)(O)O)c3cc(Cl)c4ncc(C#N)c(NCC(C)(C)C)c4c3)cccc2c1=O [Formula I Form II],Formula I Purity Over Time (% purity),"[1]; About 40° C., about 88% RH, 0 days",98.78 % purity
same,Formula I Purity Over Time (% purity),"[1]; About 40° C., about 88% RH, 1 day",98.67 % purity
same,Formula I Purity Over Time (% purity),"[1]; About 40° C., about 88% RH, 7 days",98.64 % purity
same,Formula I Purity Over Time (% purity),"[1]; About 40° C., about 88% RH, 14 days",98.59 % purity
same,loss of purity over time,[1]; compared to Formula I Form I or Formula I amorphous material,decreased loss of purity over time
Cn1ccc2c([C@@H](c3cn(C45CC(C4)C5)nn3)N(C(=O)OCOP(=O)(O)O)c3cc(Cl)c4ncc(C#N)c(NCC(C)(C)C)c4c3)cccc2c1=O [Formula I Form IV],Formula I Purity Over Time (% purity),"[1]; About 40° C., about 0% RH, 0 days",99.49 % purity
same,Formula I Purity Over Time (% purity),"[1]; About 40° C., about 0% RH, 14 days",99.44 % purity
same,Formula I Purity Over Time (% purity),"[1]; About 40° C., about 0% RH, 28 days",99.43 % purity
Cn1ccc2c([C@@H](c3cn(C45CC(C4)C5)nn3)N(C(=O)OCOP(=O)(O)O)c3cc(Cl)c4ncc(C#N)c(NCC(C)(C)C)c4c3)cccc2c1=O [Formula I Form I],Formula I Purity Over Time (% purity),"[1]; About 40° C., about 75% RH, 0 days",99.13 % purity
same,Formula I Purity Over Time (% purity),"[1]; About 40° C., about 75% RH, 7 days",98.37 % purity
same,Formula I Purity Over Time (% purity),"[1]; About 40° C., about 75% RH, 14 days",97.97 % purity
same,Formula I Purity Over Time (% purity),"[1]; About 40° C., about 75% RH, 28 days",96.57 % purity
same,DVS weight change,[2]; RH 5-95%,about 9.5 weight percent
Cn1ccc2c([C@@H](c3cn(C45CC(C4)C5)nn3)N(C(=O)OCOP(=O)(O)O)c3cc(Cl)c4ncc(C#N)c(NCC(C)(C)C)c4c3)cccc2c1=O [Formula I Glycolate],DVS weight change,[2]; 0-90% RH,about 7.5%
same,DVS weight change,[2]; 50-90% RH,about 2%
Cn1ccc2c([C@@H](c3cn(C45CC(C4)C5)nn3)N(C(=O)OCOP(=O)(O)O)c3cc(Cl)c4ncc(C#N)c(NCC(C)(C)C)c4c3)cccc2c1=O [Formula I Pyruvate Form B],DVS weight change,[2]; 10-90% RH,about 4.3%
same,DVS weight change,[2]; 50-90% RH,about 2.5%
Cn1ccc2c([C@@H](c3cn(C45CC(C4)C5)nn3)N(C(=O)OCOP(=O)(O)O)c3cc(Cl)c4ncc(C#N)c(NCC(C)(C)C)c4c3)cccc2c1=O [Formula I α-Ketobutyrate Form B],DVS weight change,[2]; 0-90% RH,about 5.5%
same,DVS weight change,[2]; 50-90% RH,about 2%
